Data: paper PMC6112376, “Comprehensive Analyses and Prioritization of Tox21 10K Chemicals Affecting Mitochondrial Function by in-Depth Mechanistic Studies” (Environmental Health Perspectives, 2018)
Where two headings read alike, the source gives them in different places.

Assays:
HepG2 cells [1] = conditions: for IC50: read-out: MMP assays IC50 (µM) HepG2
HepG2 cells [2] = conditions: cited from earlier work
rat primary hepatocytes = assay: MMP assay in rat primary hepatocytes; conditions: for IC50: read-out: MMP assays IC50 (µM) Rat Hepatocytes
[3] = HepG2 cells, single number from one experiment
[4] = read-out: MMP assays IC50 (µM), qHTS-HepG2
[5] = rat hepatocytes, mean ± SD of three experiments
[6] = read-out: MMP assays IC50 (µM) qHTS-HepG2

Structure (SMILES) | MMP assays efficacy (%) HepG2 (HepG2 cells [1]; [3]) | IC50 (HepG2 cells [1]; [3]) [µM] | MMP assays efficacy (%) qHTS-HepG2 (HepG2 cells [2]) | IC50 (HepG2 cells [2]; [4]) [µM] | MMP assays efficacy (%) Rat Hepatocytes (rat primary hepatocytes; [5]) | IC50 (rat primary hepatocytes; [5]) [µM] | MMP assays IC50 (µM) HepG2 (HepG2 cells [1]) | MMP assays efficacy (%) HepG2 (HepG2 cells [1]) | MMP assays IC50 (µM) qHTS-HepG2 (HepG2 cells [2]) | MMP assays IC50 (µM) Rat Hepatocytes (rat primary hepatocytes) | IC50 (HepG2 cells [2]; [6]) [µM] | MMP assays IC50 (µM) HepG2 (HepG2 cells [1]; [3]) | MMP assays IC50 (µM) Rat Hepatocytes (rat primary hepatocytes; [5]) | IC50 (rat primary hepatocytes; Rattus norvegicus, Hepatocyte) [µM] | IC50 (HepG2 cells [1]) [µM] | IC50 (rat primary hepatocytes) [µM]
Nc1ccc2cc3ccc(N)cc3nc2c1.Nc1ccc2cc3ccc(N)cc3nc2c1.O=S(=O)(O)O [Proflavin hemisulfate] | -95% | 3.46 | -115±21% | 3.22 ± 0.82 | -94±11% | 11.6 ± 5.45 |  |  |  |  |  |  |  |  |  | 
CCCCC/C(C=O)=C/c1ccccc1 [Amyl cinnamal] |  |  | inactive |  |  |  | inactive | inactive | inactive | inactive |  |  |  |  |  | 
CCCCCCCCCCCCCC[P+](CCCCCC)(CCCCCC)CCCCCC.[Cl-] [Trihexyltetradecylphosphonium chloride] | -101% | 0.89 | -113±11% | 0.77 ± 0.35 | -91±44% | 30.3 ± 8.97 |  |  |  |  |  |  |  |  |  | 
O=C(c1ccc(O)c(O)c1)c1ccc(O)cc1O [2,3',4,4'-Tetrahydroxybenzophenone] |  | 8.91 | -89±13% |  | -69±32% | 40.4 ± 8.45 |  |  |  |  | 7.39 ± 7.14 |  |  |  |  | 
CC(C)(C)c1cc(Cc2cc(C(C)(C)C)c(O)c(C(C)(C)C)c2)cc(C(C)(C)C)c1O [4,4'-Methylenebis(2,6-di-t-butylphenol)] | inactive |  | inactive |  | inactive |  |  |  | inactive |  |  | inactive | inactive |  |  | 
O=C1c2c(O)ccc(Nc3ccc(CCO)cc3)c2C(=O)c2c([N+](=O)[O-])ccc(O)c21 [C.I. Disperse blue 27] | -119% | 25.1 | -86±8% |  | -72±24% | 32.5 ± 10.4 |  |  |  |  | 2.34 ± 0.87 |  |  |  |  | 
CN[C@H]1CC[C@@H](c2ccc(Cl)c(Cl)c2)c2ccc(S(N)(=O)=O)cc21 | -84% | 10 | -78±20% |  | -51±37% | 35.7 ± 5.79 |  |  |  |  | 8.31 ± 1.43 |  |  |  |  | 
CC(O)C(=O)O.CCOc1ccc2nc3cc(N)ccc3c(N)c2c1.O [Ethacridine lactate hydrate] |  | 5.48 | -103±8% |  | -98±24% | 10.2 ± 5.58 |  |  |  |  | 3.22 ± 0.55 |  |  |  |  | 
CC/C=C\C/C=C\C/C=C\CCCCCCCC(=O)OCC [Ethyl linolenate] | inactive |  | -51±21% |  | inactive |  |  |  |  |  | 49.6 ± 36 | inactive | inactive |  |  | 
OC1CCCCCCCCCCC1 [Cyclododecanol] | inactive |  | -66±13% |  | inactive |  |  |  |  |  | 48.8 ± 3.84 | inactive | inactive |  |  | 
C=C1CC[C@H](O)C/C1=C/C=C1\CCC[C@]2(C)[C@@H]([C@H](C)CC[C@@H](O)C(C)(C)O)CC[C@@H]12 [24R,25-Dihydroxyvitamin D3] | -133% | 15.5 | -111±10% |  | -46±4% | 17.3 |  |  |  |  | 13 ± 2.17 |  |  |  |  | 
C=CCc1cc(S(=O)(=O)c2ccc(O)c(CC=C)c2)ccc1O | -107% | 15.8 | -114±19% |  | -52±23% | 24.5 ± 19.9 |  |  |  |  | 45 ± 17.9 |  |  |  |  | 
Cc1cc(C(=C2C=CC(=N)C=C2)c2ccc(N)cc2)ccc1N [C.I. Basic violet 14] | -96% | 0.87 | -87±10% |  | -71±37% | 6.84 ± 4.71 |  |  |  |  | 0.18 ± 0.16 |  |  |  |  | 
Oc1ccc2cc(SSc3ccc4cc(O)ccc4c3)ccc2c1 [6-Hydroxy-2-naphthyl disulfide] | -98% | 28.2 | -110±7% |  | -68±46% | 39.8 |  |  |  |  | 33.7 ± 3.64 |  |  |  |  | 
CC(C)[C@@H](C)/C=C/[C@@H](C)[C@H]1CC[C@H]2/C(=C/C=C3\C[C@@H](O)CC[C@@H]3C)CCC[C@]12C [Dihydrotachysterol] | inactive |  | -78±16% |  | inactive |  |  |  |  |  | 32.7 ± 1.32 | inactive | inactive |  |  | 
CCCCCCCC[n+]1ccn(C)c1.O=S(=O)([O-])C(F)(F)F [1-Methyl-3-octylimidazolium trifluoromethanesulfonate] | -84% | 15.8 | -58±19% |  | -82±36% | 31.6 |  |  |  |  | 8.38 ± 4.29 |  |  |  |  | 
O=C=Nc1cccc(C(F)(F)F)c1 [1-Isocyanato-3-(trifluoromethyl)benzene] | -108% | 6.31 | -119±7% |  | -107±13% | 11.5 ± 3.69 |  |  |  |  | 3.28 ± 1.13 |  |  |  |  | 
CC(C)(O)c1ccccc1CC[C@@H](SCC1(CC(=O)O)CC1)c1cccc(/C=C/c2ccc3ccc(Cl)cc3n2)c1 [Montelukast sodium] |  |  | -72±20% |  |  |  | inactive | inactive |  |  |  |  |  | 24.1 ± 9.54 |  | 
O=C(c1ccccc1)c1cc(Cl)ccc1O | -98% | 39.8 | -85±12% |  | -59±21% | 25.4 ± 21.3 |  |  |  |  | 29.1 ± 3.36 |  |  |  |  | 
O=C(Nc1ccc([N+](=O)[O-])cc1)Nc1ccc([N+](=O)[O-])cc1 [4,4'-Dinitrodiphenylurea] |  |  | -79±2% |  |  |  |  | -90% |  |  | 0.46 ± 0.06 |  |  |  | 0.97 | 0.7 ± 0.46
CCCC(c1cc(C(C)(C)C)c(O)cc1C)c1cc(C(C)(C)C)c(O)cc1C | -100% | 7.08 | -106±11% | 5.51 ± 1.58 | -61±15% | 21.1 ± 18.2 |  |  |  |  |  |  |  |  |  | 
O=C(CC(=O)C(F)(F)F)c1ccccc1 [4,4,4-Trifluoro-1-phenyl-1,3-butanedione] | -85% | 31.6 | -103±7% |  | inactive |  |  |  |  |  | 20.4 ± 6.17 |  | inactive |  |  | 
CCCCCCCCOc1ccc(C(=O)O)cc1 [4-Octyloxybenzoic acid] | inactive |  | -100±24% |  | -57±30% | 48 ± 11.6 |  |  |  |  | 39.6 ± 31.3 | inactive |  |  |  | 
CCCCCCCC[N+](C)(CCCCCCCC)CCCCCCCC.[Cl-] [N-Methyl-N,N-dioctyloctan-1-aminium chloride] | -89% | 10 | -80±6% | 2.73 ± 0.32 | -100±17% | 19.6 ± 4.89 |  |  |  |  |  |  |  |  |  | 
CCCCCCCCCOC(=O)c1ccc(O)cc1 [Nonylparaben] | -110% | 7.94 | -101±6% | 4.43 ± 0.3 | inactive |  |  |  |  |  |  |  | inactive |  |  | 
